According to patent publication EP0426574A1, “Thiazole derivatives and antiulcer agents containing the same” (TERUMO KABUSHIKI KAISHA, priority 1989, dated 1991):
Counter-ions that a name gives are not always drawn.

Tested on: ethanol hydrochloric acid ulcer
Test: Inhibitory activity against ethanol hydrochloric acid ulcer
Format: in vivo
Settings: SD male rats fasted 24 hours; 30mg/kg orally, one hour before 150 mM hydrochloric acid in 60% ethanol; ulcer index = total lesion length, one hour later
Method: To SD male rats (weighing 150-250 g) fasted for 24 hours was administered orally a thiazole derivative of the invention. One hour later, a hydrochloric acid solution in ethanol (containing 150 mM hydrochloric acid in 60% ethanol) was orally given in a volume of 0.5 ml/100 g bodyweight.
One hour later, the animals were sacrificed with ether. The stomach was excised and, after formalin treatment, measured for the length (mm) of lesions developed in glandular portions of the stomach. Total length of the lesions per animal was taken as ulcer index.
Percent inhibition of ulceration as referred to in the table is a value obtained by reducing from 1 the ulcer index for the rat with a thiazole derivative of the invention orally given divided by the ulcer index for the orally non-administered rat and multiplying the value by 100. The calculation is conducted by the formula shown below. [formula]

| Structure (SMILES) | Percent inhibition of ulceration (%) |
| --- | --- |
| c1ccc(Nc2nc3cccnc3s2)cc1 [Example 2, 2-phenylamino[5,4-b]pyridothiazole hydrochloride] | 88.8% |
| CNc1nc2cccnc2s1 [Example 1, 2-methylamino[5,4-b]pyridothiazole hydrochloride] | 100.0% |
| COc1ccc(Nc2nc3cccnc3s2)cc1 [Example 5, 2-(4-methoxyphenyl)-amino[5,4-b]pyridothiazole hydrochloride] | 51.2% |
| CN(C)c1ccc(Nc2nc3cccnc3s2)cc1 [Example 4, 2-(4-dimethylaminophenyl)amino[5,4-b]pyridothiazole hydrochloride] | 45.5% |
| c1ccc(CNc2nc3cccnc3s2)cc1 [Example 3, 2-benzylamino[5,4-b]pyridothiazole hydrochloride] | 87.2% |
